From US10646527B2, “Method of using a Mangifera indica composition in the treatment of obesity” (Vidya Herbs, Inc., priority 2015, dated 2020)
Marks after values point to notes of the source that are not given here.

Experiments:
[1] = test system: high fat diet fed male Wistar rats; assay: Anti-obesity activity in high fat diet fed rats; format: in vivo, rat; conditions: Group III, Orlistat 30 mg/kg
Protocol: Objective: The objective was to investigate the effect of the composition against high fat diet fed rats.
Animals: male Wistar rats (160 to 200 g); no. of animals: 36; housing: 3/cage, 12 hrs light/dark cycle; temperature: 25±2° c.
Model & composition of the diet: high fat diet in rats: 25% lard, 5% soybean oil; 5% starch; 65% normal commercial available rat feed
Groups: male Wistar rats were divided into six groups with six animals in each group.

[2] = Hydrogen peroxide (H2O2) scavenging activity; format: biochemical
Protocol: Hydrogen peroxide scavenging activity of the composition was estimated in this study where initially, composition solutions were prepared at different concentrations in distilled water and the resultant solutions were mixed in 0.6 ml of 40 mM H2O2 solution prepared in phosphate buffer (0.1 M pH 7.4) and incubated for 10 min. The absorbance was measured at 230 nm against a blank solution containing H2O2. Similar procedure was repeated for the composition, mangiferin, and quercetin. The amount of hydrogen peroxide radical inhibited was calculated using the following equation. The result is expressed as % H2O2 radical scavenging activity.
[formula] [formula] where: Abs control—Absorbance of H2O2 radical Abs sample—Absorbance of sample extract/standard (the composition, mangiferin and quercetin) Result: […]

[3] = Lipid peroxidation inhibitory assay (TBARS, egg yolk homogenate); format: biochemical; conditions: Sample Concentration: 100-500 μg/ml
Protocol: A modified thiobarbituric acid reactive species (TBARS) assay (Ohkowa et al., 1979) is used to measure lipid peroxidation formed using egg yolk homogenate as lipid rich media (Ruberto et al., 2000).
Take 0.5 ml of egg homogenate (10% in distilled water) and 0.1 ml of test sample in the concentration range 100-500 μg/ml in a test tube and volume made up to 1 ml by adding distilled water. Finally add 0.05 ml ferrous sulphate (0.07M) to the above mixture and incubated for 30 min to induce the lipid peroxidation. Thereafter added 1.5 ml of 20% acetic acid (pH 3.5) and 1.5 ml of (0.8% in 1.1% SDS) TBA and 0.05 ml (20%) TCA then heated in boiling water bath for 60 min. After cooling 5 ml of butanol was added to all the test tubes and centrifuged at 3000 rpm for 10 min. Measured the absorbance of the organic upper layer at 532 nm. The percentage inhibition of lipid peroxidation was calculated from the formula,
[formula] where: Ab (cont)—is the absorbance of the control Ab (test sample)—is the absorbance of the test sample/standard

Compound	Atherogenic Index [1]	BAT (brown adipose tissue) [1]	Difference in body weight gain [1]	Epididymal fat pad Left [1]	Epididymal fat pad Right [1]	Liver organ weight [1]	% H2O2 radical scavenging activity ([2]; 10 μg/ml)	% H2O2 radical scavenging activity ([2]; 20 μg/ml)	% H2O2 radical scavenging activity ([2]; 30 μg/ml)	% H2O2 radical scavenging activity ([2]; 40 μg/ml)	Lipid peroxidation % inhibition [3]
CCCCCCCCCCC[C@@H](C[C@@H]1OC(=O)[C@H]1CCCCCC)OC(=O)[C@H](CC(C)C)NC=O [Orlistat]	1.39 ± 0.15^***b	0.28 ± 0.01^nsb	79.82 ± 2.58 ^b	0.52 ± 0.03^nsb	0.55 ± 0.02^nsb	2.8 ± 0.08***^b					
O=c1c(O)c(-c2ccc(O)c(O)c2)oc2cc(O)cc(O)c12 [Quercetin(Standard), Quercetin]							5.6%	14.55%	18.86%	33.96%	53.44%
